Laboratory results taken from patent US5521199A, “Piperidinyl compounds as neurokinin receptor antagonists” (Zeneca Limited, priority 1993, dated 1996).
Structures can show the parent of a compound that is named as a salt.

How the values were obtained:
[1] = target: T1, guinea pig trachea (Cavia porcellus, UniProt Q64077); assay: Guinea Pig Trachea Assay (Test B); assay type: cell-based; conditions: antagonism of NKA or [β-ala8]-NKA(4-10) contraction; -log molar KB; read-out: pKB (Test B) (converted)
T1 construct: The trachea are removed, trimmed of excess tissue and divided into two segments; from tissue; host or cells: trachea of male guinea pigs, rings in tissue baths
T1 sequence (Q64077 1-402): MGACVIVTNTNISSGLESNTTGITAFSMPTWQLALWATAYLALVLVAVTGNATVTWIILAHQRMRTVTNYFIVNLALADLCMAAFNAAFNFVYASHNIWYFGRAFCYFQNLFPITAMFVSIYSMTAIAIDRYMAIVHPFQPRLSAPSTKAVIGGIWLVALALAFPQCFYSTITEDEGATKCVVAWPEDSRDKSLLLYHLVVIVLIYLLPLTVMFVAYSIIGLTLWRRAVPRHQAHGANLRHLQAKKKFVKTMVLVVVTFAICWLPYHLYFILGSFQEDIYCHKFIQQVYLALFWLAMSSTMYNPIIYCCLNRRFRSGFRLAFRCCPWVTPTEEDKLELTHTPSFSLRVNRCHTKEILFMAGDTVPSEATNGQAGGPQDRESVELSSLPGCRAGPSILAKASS
Description: Guinea Pig Trachea Assay (Test B)
In the test described below either NKA or [β-ala^8 ]-NKA(4-10) is used as an agonist. The chosen agonist is referred to as AG throughout the description.
Male guinea pigs are killed by a sharp blow to the back of the head. The trachea are removed, trimmed of excess tissue and divided into two segments. […] Initial tension placed on each tissue is 1 g, which is maintained throughout a 0.5 to 1.5 hour equilibration period before addition of other drugs. Contractile responses are measured on a Grass polygraph via Grass FT-03 force transducers.
Tissues are challenged repetitively with a single concentration of AG (10 nM) with intervening 30 min periods with washing to allow the tension to return to baseline levels. […] Percent inhibition is determined when a Compound produces a statistically significant (p<0.05) reduction of the contraction and is calculated using the second contractile response as 100%.
Potencies of selected Compounds are evaluated by calculating apparent dissociation constants (KB) for each concentration tested using the standard equation: […]
where dose ratio=antilog[(AG -log molar EC50 without Compound)--(AG -log molar EC50 with Compound)]. The KB values may be converted to the negative logarithms and expressed as -log molar KB (i.e. pKB). […] The EC50 values are converted to the negative logarithms and expressed as -log molar EC50. […]

[2] = target: T2, human NK2 receptor (Homo sapiens, UniProt P21452); assay: Neurokinin A (NKA) Receptor-binding Assay (Test A); conditions: 3H-NKA, MELM, 60 min at 25° C., pH 7.4
T2 sequence (P21452 1-398): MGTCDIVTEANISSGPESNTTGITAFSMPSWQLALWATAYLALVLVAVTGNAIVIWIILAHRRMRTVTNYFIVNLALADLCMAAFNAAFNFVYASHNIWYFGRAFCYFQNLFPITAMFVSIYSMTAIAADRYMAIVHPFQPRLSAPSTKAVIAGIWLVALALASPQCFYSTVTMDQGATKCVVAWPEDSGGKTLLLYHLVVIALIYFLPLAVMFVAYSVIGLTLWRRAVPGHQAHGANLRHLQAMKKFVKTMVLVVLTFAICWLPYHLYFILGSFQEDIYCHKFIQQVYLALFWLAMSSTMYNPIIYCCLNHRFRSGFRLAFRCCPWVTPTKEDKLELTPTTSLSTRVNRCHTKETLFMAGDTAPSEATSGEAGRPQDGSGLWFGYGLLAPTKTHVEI
Description: Membrane preparations (MELM) prepared from the MEL cells containing high-affinity NK2 receptors were prepared according to a published protocol (D. Aharony, et al., Neuropeptides (1992) 23, 121-130) with the following minor modifications: (1) Iodoacetamide (1 mM) was included in the homogenization buffer; (2) Homogenization was as published but for a shorter period of 10 seconds once and at a slower speed (setting 10); and (3) The equilibration step with KCl/EDTA was not performed.

[3] = tested on: NK2 receptor; assay: Guinea Pig Labored Abdominal Breathing (Dyspnea) Assay (Test C); assay type: in vivo; conditions: oral, two hours prior to challenge with the agonist [β-ala8]-NKA(4-10) aerosol; all five animals fully protected
Description: Guinea Pig Labored Abdominal Breathing (Dyspnea) Assay (Test C)
Using the clear plastic chamber described previously by Snyder et al. to secure guinea pigs for a head-only aerosol exposure to bronchoconstrictor agonists, agonist is administered by aerosol to six conscious guinea pigs simultaneously during each maneuver. The tachykinin NK2-selective agonist, [β-ala^8 ]-NKA(4-10), 3×10^-5 M, is aerosolized from a Devilbiss Model 25 ultrasonic nebulizer into an air stream entering the chamber at a rate of 2 L/minute.
Guinea pigs (275-400 g) are fasted for approximately 16 hours prior to experimentation. Compounds to be evaluated for blockade of effects of [β-ala^8 ]-NKA(4-10) or their vehicle (10% PEG400 in saline) are administered p.o. or i.v. at various times before aerosol agonist challenge. All animals are pretreated with atropine (10 mg/kg, j.p., 45 minutes pretreatment) indomethacin (10 mg/kg, i.p., 30 minutes pretreatment), propranolol (5 mg/kg, i.p., 30 minutes pretreatment), and thiorphan (1 mg/ml aerosol for 5 minutes, 15 minutes pretreatment)
Aerosol challenge with the agonist produces an initial increase in respiratory rate followed by a decrease with early signs of minor involvement of the abdominal muscles. […] Time, in seconds, from the onset of aerosol challenge to this end point is determined for each animal by using a stopwatch. […]

Compound	Kb [1]	Ki [2]	protection (Test C) [3]
CC(=O)OCCC1CCN(CCC(CN(C)C(=O)c2ccccc2)c2ccc(Cl)c(Cl)c2)CC1 (centres unmarked) [Example 10, N-[2-(3,4-Dichlorophenyl)-4-[4-(2-acetoxyethyl)piperidino]butyl]-N-methylbenzamide hydrochloride]	15.8 nM	40 nM	–
CCC(O)(CC)C1CCN(CC[C@H](CN(C)C(=O)c2ccccc2)c2ccc(Cl)c(Cl)c2)CC1.Cl [Example 16, (S)-N-[2-(3,4-Dichlorophenyl)-4-[4-(1-ethyl-1-hydroxypropyl)piperidino]butyl]-N-methylbenzamide hydrochloride]	3.98 nM	1.5 nM	100%
